The subject of experiment [1] is C57BL/6j mice. Put plainly: Ovalbumin-specific IgM in serum, oral tolerance model. The class given is in vivo. As for the experimental part:
Since it is well-known that animals can be immunized by ovalbumin (OVA) to establish the animal model for the autoimmune disease (The Journal of Pharmacology and Experimental Therapeutics 288:849-857, 1999), the present invention establishes an animal model which includes mice with OVA-induced autoimmune disease, and the mice are treated with DeCaPS to enhance oral tolerance. […] 50 μg of OVA with Complete Freund's Adjuvant (CFA) was administrated to the mice as an antigen via i.p. injection at day 8 and with OVA on day 24. OVA-specific IgG and IgM in the blood was collected at day 22 and day 30. The mice were sacrificed at day 32 to collect an intestinal lavage solution of the intestinal mucosa and the lung mucosa to detect IgA in response to OVA. The detailed experimental procedures are illustrated in the following table II.
With comparison to the IgM antibody level expressed in the control group at day 22, the IgM antibody level expressed in the normal group was decreased by about 49% (p<0.05), the IgM antibody level-expressed in the positive control group was suppressed by about 87% (p<0.05), the IgM antibody level-expressed in the DC-1 group was suppressed by about 46% (p<0.02), the IgM antibody level-expressed in the DC-2 group was suppressed by about 88% (p<0.001), and the IgM antibody level in the DC-3 group was suppressed by about 86% (p<0.001). […]

Experiment [2] concerns C57BL/6j mice. Description: Ovalbumin-specific IgG in serum, oral tolerance model. The class given is in vivo. The protocol: Since it is well-known that animals can be immunized by ovalbumin (OVA) to establish the animal model for the autoimmune disease (The Journal of Pharmacology and Experimental Therapeutics 288:849-857, 1999), the present invention establishes an animal model which includes mice with OVA-induced autoimmune disease, and the mice are treated with DeCaPS to enhance oral tolerance. C57/BL6j mice ([…]) were orally treated with 0.5 mg/ml ovalbumin (OVA) in drinking water at day 4 and day 5, and DeCaPS was administrated to the C57/BL6j mice as an adjuvant at dosages of 10 mg/kg/day, 40 mg/kg/day and 160 mg/kg/day at days 3-7. 50 μg of OVA with Complete Freund's Adjuvant (CFA) was administrated to the mice as an antigen via i.p. injection at day 8 and with OVA on day 24. OVA-specific IgG and IgM in the blood was collected at day 22 and day 30. The mice were sacrificed at day 32 to collect an intestinal lavage solution of the intestinal mucosa and the lung mucosa to detect IgA in response to OVA. The detailed experimental procedures are illustrated in the following table II. […]

Setting [3] is: day 22, positive control group (oral OVA days 1-5, no DeCaPS).
Setting [4] is: day 30, positive control group (oral OVA days 1-5, no DeCaPS).

On to ovalbumin [ovalbumin antigen], for which the “IgM antibody level suppressed vs control group” value in the experiment on C57BL/6j mice [1] (setting [3]) is given as “about 87%”; in the experiment on C57BL/6j mice [1] (setting [4]) it was “about 72%”. Besides, the figures for the “IgG antibody level suppressed vs control group” value with C57BL/6j mice [2] (setting [3]) and in the experiment on C57BL/6j mice [2] (setting [4]) were “about 94%” and “about 75%”, respectively.

These data come from US7939110B2, “Composition and method for treating autoimmune disease and mucosal disorder” (National Yang-Ming University, priority 2005, dated 2011).
